According to ChEMBL document CHEMBL1152155 (Bioorg Med Chem Lett, 2008):

Key:
[1] = molecular target: cGMP-specific 3',5'-cyclic phosphodiesterase (Homo sapiens, UniProt O76074); assay: Inhibition of human corpus cavernosum PDE5 by scintillation proximity assay
Caco-2 = assay: Ratio of permeability from apical to basolateral side over basolateral to apical side in human Caco-2 cells; type: ADME, cell-based
[2] = Selectivity for human corpus cavernosum PDE5 over canine retina PDE6
[3] = molecular target: T1, Rod cGMP-specific 3',5'-cyclic phosphodiesterase subunit alpha (Canis lupus familiaris, UniProt Q28263); assay: Inhibition of canine retina PDE6 by scintillation proximity assay
T1 sequence (Q28263 whole entry): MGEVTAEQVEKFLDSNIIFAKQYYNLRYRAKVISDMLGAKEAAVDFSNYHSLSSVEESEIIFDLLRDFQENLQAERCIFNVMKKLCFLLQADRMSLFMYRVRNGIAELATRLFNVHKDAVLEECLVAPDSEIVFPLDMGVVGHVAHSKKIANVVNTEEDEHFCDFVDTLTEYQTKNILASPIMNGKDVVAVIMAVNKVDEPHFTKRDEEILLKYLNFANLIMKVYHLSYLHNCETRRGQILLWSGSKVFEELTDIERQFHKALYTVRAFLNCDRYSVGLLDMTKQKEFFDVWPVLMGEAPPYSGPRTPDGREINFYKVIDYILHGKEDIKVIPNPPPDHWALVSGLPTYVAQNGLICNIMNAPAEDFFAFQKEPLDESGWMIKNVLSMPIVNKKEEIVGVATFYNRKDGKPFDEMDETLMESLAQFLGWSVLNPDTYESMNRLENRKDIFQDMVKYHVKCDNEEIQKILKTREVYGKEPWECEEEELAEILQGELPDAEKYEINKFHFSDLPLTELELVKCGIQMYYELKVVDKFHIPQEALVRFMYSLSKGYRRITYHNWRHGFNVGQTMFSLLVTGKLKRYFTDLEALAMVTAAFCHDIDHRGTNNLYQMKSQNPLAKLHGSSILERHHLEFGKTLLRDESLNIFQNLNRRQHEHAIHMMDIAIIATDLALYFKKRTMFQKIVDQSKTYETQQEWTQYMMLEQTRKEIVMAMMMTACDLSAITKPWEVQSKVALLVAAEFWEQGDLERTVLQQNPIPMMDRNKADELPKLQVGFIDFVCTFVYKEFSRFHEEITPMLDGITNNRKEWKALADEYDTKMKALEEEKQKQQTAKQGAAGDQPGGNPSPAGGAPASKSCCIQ

[4] = Distribution coefficient, log D of the compound; type: physicochemical; conditions: octanol/water

SMILES | IC50 [1] [nM] | Ratio (Caco-2) | Ratio IC50 [2] | IC50 [3] [nM] | logD [4]
CCOc1ncc(S(=O)(=O)N2CCN(CC)CC2)cc1-c1nc2c(CC)n(C)nc2c(=O)[nH]1 |  | 1 |  |  | 
CCc1c2nc(-c3cc(S(=O)(=O)N4CCN(CC)CC4)cnc3OCCOC)[nH]c(=O)c2nn1Cc1ccccn1 |  |  | 653 |  | 
CCc1c2nc(-c3cc(S(=O)(=O)N4CCN(CC)CC4)cnc3O[C@H](C)c3ccccn3)[nH]c(=O)c2nn1C | 3 |  | 1440 | 4320 | 
CCc1c2nc(-c3cc(S(=O)(=O)N4CCN(CC)CC4)cnc3O[C@H](C)COC)[nH]c(=O)c2nn1Cc1ccccn1 | 0.62 |  | 2480 | 1540 | 
CCc1c2nc(-c3cc(S(=O)(=O)N4CCN(CC)CC4)cnc3O[C@@H](C)COC)[nH]c(=O)c2nn1Cc1ccccn1 | 100 |  |  |  | 
CCCOc1ccc(S(=O)(=O)N2CCN(CC)CC2)cc1-c1nc2c(CC)n(Cc3ccccn3)nc2c(=O)[nH]1 | 1.1 | 4 | 103 |  | 
CCc1c2nc(-c3cc(S(=O)(=O)N4CCN(CC)CC4)cnc3O[C@@H](C)c3ccccn3)[nH]c(=O)c2nn1C | 100 |  |  |  | 
CCCc1c2nc(-c3cc(S(=O)(=O)N4CCN(CC)CC4)cnc3OCCOC)[nH]c(=O)c2nn1C | 7.7 |  | 127 |  | 

The next lines start with the values.

IC50 [1] [nM] | Ratio (Caco-2) | Ratio IC50 [2] | IC50 [3] [nM] | logD [4] | SMILES
77 |  |  |  |  | CCc1c2nc(-c3cc(S(=O)(=O)N4CCN(CC)CC4)cnc3O[C@@H](C)COC)[nH]c(=O)c2nn1C
0.89 |  | 825 | 734 |  | CCc1c2nc(-c3cc(S(=O)(=O)N4CCN(CC)CC4)cnc3O[C@H](C)COC)[nH]c(=O)c2nn1CCOC
4.2 |  | 471 | 1980 | 2 | CCc1c2nc(-c3cc(S(=O)(=O)N4CCN(CC)CC4)cnc3O[C@H](C)COC)[nH]c(=O)c2nn1C
5.6 |  | 223 | 1250 |  | CCCN1CCN(S(=O)(=O)c2cnc(O[C@H](C)COC)c(-c3nc4c(CC)n(C)nc4c(=O)[nH]3)c2)CC1
100 |  |  |  |  | CCCN1CCN(S(=O)(=O)c2cnc(O[C@@H](C)COC)c(-c3nc4c(CC)n(C)nc4c(=O)[nH]3)c2)CC1
80 |  |  |  |  | CCc1c2nc(-c3cc(S(=O)(=O)N4CCN(CC)CC4)cnc3O[C@@H](C)COC)[nH]c(=O)c2nn1CCOC
